Converted amounts (≈) assume the structure as drawn. The source made the active and inactive calls. No cut-off for these calls is given here.
Experiments:
[1] = Metabolic stability in Han Wistar rat hepatocytes assessed as intrinsic clearance measured per 10^6 cells at 1 uM after 120 mins by LC-MS/MS analysis; format: ADME, cell-based, Hepatocyte; settings: read-out: CLH
[2] = target: T1, Relaxin receptor 1 (Rattus norvegicus) (UniProt Q6R6I6); assay: Agonist activity at rat RXFP1 expressed in T-Rex-CHO-K1 cells assessed as stimulation of cAMP production by measuring maximal efficacy incubated for 60 mins by HTRF assay relative to control; format: functional, cell-based; settings: filed as agonist
T1 sequence (whole entry): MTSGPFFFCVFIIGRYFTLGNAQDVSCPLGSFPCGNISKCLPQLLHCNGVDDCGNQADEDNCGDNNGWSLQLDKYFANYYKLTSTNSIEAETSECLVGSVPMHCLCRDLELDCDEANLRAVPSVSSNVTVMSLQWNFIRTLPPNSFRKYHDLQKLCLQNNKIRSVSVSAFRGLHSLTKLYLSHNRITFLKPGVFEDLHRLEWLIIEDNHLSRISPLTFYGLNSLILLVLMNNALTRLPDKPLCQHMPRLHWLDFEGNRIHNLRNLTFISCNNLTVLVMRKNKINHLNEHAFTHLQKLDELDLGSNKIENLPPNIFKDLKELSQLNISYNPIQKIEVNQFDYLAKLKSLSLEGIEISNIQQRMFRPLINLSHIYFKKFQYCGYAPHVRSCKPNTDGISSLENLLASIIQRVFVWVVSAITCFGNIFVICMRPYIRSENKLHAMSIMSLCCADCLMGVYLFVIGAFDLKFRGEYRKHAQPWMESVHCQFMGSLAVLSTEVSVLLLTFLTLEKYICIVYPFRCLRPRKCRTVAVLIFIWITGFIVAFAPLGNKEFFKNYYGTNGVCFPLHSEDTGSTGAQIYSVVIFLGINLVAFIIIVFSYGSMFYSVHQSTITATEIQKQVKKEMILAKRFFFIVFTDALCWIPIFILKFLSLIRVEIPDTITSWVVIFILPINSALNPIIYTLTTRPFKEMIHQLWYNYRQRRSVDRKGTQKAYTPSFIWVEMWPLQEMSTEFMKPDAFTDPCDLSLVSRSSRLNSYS

[3] = target: Sodium channel protein type 5 subunit alpha (Homo sapiens, UniProt Q14524); assay: Inhibition of human Nav1.5 by automated electrophysiology recording; format: toxicity
[4] = Solubility of compound in phosphate buffer at pH 6.5; format: physicochemical
[5] = Volume of distribution at steady state in Han Wistar rat at 0.73 micromol/kg, iv by LC-MS/MS analysis; format: ADME, organism-based; settings: in vivo, dose 0.73 µmol/kg, read-out: Vdss
[6] = Metabolic stability in Han Wistar rat hepatocytes assessed as unbound intrinsic clearance measured […] at 1 uM after 120 mins by LC-MS/MS analysis; format: ADME, cell-based, Hepatocyte; settings: 2 h
Bile salt export pump = Bile salt export pump (Homo sapiens, UniProt O95342); assay: Inhibition of BSEP (unknown origin) by membrane vesicle assay; format: toxicity
[7] = Metabolic stability in cryopreserved human hepatocytes assessed as unbound intrinsic clearance measured per 10^6 cells at 1 uM measured after 120 mins by LC-MS/MS analysis; format: ADME, cell-based, Hepatocyte; settings: 2 h
[8] = target: T1, Relaxin receptor 1 (Rattus norvegicus); assay: In vivo agonist activity at RXFP1 in Sprague-Dawley rat assessed as hemodynamic effect by measuring increase in blood pressure at 1.5 mg/kg, iv administered via bolus followed by 9.0 mg/kg, iv administered via infusion for 3 hrs and measured 1 hrs post washout; format: functional, organism-based
Relaxin receptor 1 = target: T2, Relaxin receptor 1 (Rattus norvegicus, UniProt Q6R6I6); assay: Agonist activity at rat RXFP1 expressed in T-Rex-CHO-K1 cells assessed as stimulation of cAMP production incubated for 60 mins by HTRF assay; format: functional, cell-based
T2 sequence (Q6R6I6 whole entry): T1 sequence (whole entry)

[9] = target: T3, Leucine-rich repeat-containing G-protein coupled receptor 4 (Homo sapiens, UniProt Q9BXB1); assay: Agonist activity at LGR4 (unknown origin) by arrestin technology based assay
T3 sequence (Q9BXB1 whole entry): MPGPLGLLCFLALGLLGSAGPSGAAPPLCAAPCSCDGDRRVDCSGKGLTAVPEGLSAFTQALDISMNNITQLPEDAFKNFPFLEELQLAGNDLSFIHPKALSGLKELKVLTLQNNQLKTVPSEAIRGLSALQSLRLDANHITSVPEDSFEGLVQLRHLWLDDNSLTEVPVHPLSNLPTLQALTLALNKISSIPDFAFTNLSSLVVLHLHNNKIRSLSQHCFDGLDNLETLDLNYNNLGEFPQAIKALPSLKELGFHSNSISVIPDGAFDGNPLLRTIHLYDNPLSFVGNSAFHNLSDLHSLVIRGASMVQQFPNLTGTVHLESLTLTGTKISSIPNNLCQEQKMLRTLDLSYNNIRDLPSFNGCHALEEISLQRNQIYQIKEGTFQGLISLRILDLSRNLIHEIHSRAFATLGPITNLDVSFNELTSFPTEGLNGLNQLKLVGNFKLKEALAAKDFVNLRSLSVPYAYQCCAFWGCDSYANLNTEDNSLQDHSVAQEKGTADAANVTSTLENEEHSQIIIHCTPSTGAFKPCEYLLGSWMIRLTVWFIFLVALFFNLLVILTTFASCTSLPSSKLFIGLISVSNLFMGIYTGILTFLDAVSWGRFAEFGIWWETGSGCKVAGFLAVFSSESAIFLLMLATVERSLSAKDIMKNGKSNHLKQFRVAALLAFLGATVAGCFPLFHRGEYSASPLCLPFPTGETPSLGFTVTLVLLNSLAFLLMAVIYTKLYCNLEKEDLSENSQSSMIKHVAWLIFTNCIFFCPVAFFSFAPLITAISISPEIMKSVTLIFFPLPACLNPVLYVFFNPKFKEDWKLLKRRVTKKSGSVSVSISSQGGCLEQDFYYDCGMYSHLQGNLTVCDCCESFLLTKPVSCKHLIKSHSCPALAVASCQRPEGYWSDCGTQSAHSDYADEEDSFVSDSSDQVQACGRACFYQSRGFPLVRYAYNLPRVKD

[10] = target: Lutropin-choriogonadotropic hormone receptor (Homo sapiens, UniProt P22888); assay: Agonist activity at LSHR (unknown origin) by arrestin technology based assay; format: functional
[11] = Oral bioavailability in Han Wistar rat at 1.46 micromol/kg by LC-MS/MS analysis; format: ADME, organism-based; settings: in vivo, 1.46 µmol/kg

Lutropin-choriogonadotropic hormone receptor, sequence (P22888 whole entry): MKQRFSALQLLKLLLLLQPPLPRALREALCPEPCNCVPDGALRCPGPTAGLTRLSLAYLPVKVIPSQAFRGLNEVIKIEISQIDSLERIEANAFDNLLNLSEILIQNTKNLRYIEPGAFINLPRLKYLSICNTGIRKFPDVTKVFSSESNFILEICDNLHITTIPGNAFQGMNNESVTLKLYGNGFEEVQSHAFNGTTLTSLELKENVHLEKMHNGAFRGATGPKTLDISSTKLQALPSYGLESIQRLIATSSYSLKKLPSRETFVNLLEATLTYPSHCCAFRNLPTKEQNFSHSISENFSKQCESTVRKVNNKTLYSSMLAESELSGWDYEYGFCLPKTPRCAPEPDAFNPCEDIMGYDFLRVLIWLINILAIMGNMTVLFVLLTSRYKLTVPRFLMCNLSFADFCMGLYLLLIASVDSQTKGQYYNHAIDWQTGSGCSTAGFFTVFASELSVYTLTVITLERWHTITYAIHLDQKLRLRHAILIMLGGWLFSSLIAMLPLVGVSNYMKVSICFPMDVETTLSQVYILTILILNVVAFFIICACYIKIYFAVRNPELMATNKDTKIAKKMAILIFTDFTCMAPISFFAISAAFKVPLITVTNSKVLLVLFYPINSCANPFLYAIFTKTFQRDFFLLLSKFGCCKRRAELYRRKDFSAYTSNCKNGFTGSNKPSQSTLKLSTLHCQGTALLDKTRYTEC
Bile salt export pump, sequence (O95342 whole entry): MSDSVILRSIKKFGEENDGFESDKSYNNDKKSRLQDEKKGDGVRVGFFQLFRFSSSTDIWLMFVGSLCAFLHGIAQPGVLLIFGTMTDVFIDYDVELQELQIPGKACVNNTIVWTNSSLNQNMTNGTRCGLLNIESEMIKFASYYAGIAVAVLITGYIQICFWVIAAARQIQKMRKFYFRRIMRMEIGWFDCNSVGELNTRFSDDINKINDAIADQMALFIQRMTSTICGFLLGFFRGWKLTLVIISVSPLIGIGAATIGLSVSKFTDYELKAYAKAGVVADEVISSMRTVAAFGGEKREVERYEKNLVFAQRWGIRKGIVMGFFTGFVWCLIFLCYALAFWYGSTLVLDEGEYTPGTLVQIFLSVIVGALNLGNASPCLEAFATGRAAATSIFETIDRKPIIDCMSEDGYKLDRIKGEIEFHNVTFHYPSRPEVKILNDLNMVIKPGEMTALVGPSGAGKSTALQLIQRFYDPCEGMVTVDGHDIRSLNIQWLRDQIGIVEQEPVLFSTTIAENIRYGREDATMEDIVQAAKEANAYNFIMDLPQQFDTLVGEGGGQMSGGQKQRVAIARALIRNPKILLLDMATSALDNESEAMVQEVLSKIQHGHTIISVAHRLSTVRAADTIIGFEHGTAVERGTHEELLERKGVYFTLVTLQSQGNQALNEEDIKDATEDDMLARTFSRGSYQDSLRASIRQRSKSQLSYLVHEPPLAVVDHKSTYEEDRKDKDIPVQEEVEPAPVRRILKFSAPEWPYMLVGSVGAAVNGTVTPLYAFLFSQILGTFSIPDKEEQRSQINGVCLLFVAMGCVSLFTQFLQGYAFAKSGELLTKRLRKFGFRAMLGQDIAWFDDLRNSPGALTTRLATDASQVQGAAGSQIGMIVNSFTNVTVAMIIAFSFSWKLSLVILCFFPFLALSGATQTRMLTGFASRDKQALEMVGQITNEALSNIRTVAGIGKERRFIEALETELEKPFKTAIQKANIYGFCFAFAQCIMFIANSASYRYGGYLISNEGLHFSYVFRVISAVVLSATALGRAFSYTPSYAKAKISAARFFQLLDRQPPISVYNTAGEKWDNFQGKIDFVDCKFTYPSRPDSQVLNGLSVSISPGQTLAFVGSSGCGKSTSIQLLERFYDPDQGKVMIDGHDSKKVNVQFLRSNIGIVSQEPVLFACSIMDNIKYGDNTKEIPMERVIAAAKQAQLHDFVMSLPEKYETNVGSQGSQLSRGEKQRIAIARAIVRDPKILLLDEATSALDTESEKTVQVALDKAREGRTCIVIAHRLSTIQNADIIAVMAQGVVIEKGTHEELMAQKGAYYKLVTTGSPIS
Sodium channel protein type 5 subunit alpha, sequence (Q14524 whole entry): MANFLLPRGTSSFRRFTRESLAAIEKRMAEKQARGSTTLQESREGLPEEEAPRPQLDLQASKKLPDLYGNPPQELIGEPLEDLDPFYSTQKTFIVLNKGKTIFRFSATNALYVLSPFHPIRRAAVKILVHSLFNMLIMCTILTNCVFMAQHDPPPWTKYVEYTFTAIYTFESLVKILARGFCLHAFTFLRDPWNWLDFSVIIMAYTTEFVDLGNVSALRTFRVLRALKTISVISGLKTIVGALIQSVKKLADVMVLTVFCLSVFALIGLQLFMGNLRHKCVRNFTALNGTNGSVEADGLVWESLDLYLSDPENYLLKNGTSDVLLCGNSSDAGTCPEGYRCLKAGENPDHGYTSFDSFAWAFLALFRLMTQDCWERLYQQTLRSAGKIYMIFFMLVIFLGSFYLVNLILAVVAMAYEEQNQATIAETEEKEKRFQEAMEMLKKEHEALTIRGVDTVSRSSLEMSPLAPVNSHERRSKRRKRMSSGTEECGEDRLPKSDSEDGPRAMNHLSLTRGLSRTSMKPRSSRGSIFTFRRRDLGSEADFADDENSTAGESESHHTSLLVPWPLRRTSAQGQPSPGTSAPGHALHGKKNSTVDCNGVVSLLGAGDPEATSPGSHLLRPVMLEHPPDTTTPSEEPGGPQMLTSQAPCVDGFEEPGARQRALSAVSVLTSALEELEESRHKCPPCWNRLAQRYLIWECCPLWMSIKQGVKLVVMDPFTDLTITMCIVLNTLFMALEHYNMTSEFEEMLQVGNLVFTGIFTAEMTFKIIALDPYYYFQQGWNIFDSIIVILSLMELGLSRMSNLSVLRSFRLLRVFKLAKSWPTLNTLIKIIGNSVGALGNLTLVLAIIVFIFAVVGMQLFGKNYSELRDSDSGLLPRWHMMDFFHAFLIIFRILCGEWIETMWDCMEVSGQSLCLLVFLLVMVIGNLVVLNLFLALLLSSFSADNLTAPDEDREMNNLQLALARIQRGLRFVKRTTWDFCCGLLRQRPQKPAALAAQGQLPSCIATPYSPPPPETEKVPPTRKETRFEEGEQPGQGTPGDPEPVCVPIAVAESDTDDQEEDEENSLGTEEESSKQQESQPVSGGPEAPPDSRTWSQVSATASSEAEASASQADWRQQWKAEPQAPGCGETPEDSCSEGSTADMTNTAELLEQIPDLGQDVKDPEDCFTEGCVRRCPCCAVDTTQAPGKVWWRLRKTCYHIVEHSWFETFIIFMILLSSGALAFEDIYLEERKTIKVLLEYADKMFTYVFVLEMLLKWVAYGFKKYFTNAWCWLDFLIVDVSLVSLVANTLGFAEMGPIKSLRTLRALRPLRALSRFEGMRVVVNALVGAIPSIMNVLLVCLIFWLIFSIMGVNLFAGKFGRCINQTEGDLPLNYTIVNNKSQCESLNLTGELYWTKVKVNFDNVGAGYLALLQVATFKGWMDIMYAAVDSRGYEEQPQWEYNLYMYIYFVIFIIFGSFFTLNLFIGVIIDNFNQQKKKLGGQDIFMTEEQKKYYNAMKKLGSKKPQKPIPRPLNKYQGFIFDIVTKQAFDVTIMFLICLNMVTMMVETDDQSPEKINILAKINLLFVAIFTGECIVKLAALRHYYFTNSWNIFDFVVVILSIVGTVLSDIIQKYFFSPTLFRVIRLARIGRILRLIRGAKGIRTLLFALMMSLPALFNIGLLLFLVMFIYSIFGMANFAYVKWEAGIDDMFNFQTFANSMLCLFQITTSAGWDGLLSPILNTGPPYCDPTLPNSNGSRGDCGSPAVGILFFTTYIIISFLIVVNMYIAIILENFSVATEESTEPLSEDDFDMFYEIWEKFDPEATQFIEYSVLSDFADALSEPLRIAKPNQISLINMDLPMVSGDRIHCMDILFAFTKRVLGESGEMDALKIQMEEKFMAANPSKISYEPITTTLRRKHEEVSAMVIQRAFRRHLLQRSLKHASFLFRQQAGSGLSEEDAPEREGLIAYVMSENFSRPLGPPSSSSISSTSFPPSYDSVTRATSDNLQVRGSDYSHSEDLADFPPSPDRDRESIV

hepatocyte CLint at 1 µM [1]: 24 µL/min/1e6 cells
Emax [2]: 139%
solubility [4]: 0.13 µM (≈ 0.0887 µg/mL)
Vd [5]: 2.3 L/kg
CL free [6]: 2.4 µL/min
CL free [7]: 2.1 µL/min
EC50 (Relaxin receptor 1): 0.2 µM
EC50 [9]: 16 µM
EC50 [10]: 46 µM
bioavailability [11]: 11%
Compound: COc1cc(F)c(O[C@H]2CC[C@@](C)(C(=O)O)CC2)cc1C(=O)N[C@@H]1[C@H]2CC[C@H](C2)[C@@H]1C(=O)Nc1ccc(F)c(S(F)(F)(F)(F)F)c1
IC50 [3]: 21 µM
IC50 (Bile salt export pump): 23 µM
Activity [8]: Active

Reference: ChEMBL document CHEMBL5518235, “Identification of Novel Series of Potent and Selective Relaxin Family Peptide Receptor 1 (RXFP1) Agonists” (J Med Chem, 2024)
